This is an account of results in PubChem BioAssay (NCI).

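1) Cells in 96-well plates. 2) Compound, 48 h, 5 concentrations. 3) Linear interpolation between surrounding doses. 4) Unreached endpoint = highest concentration. At the TGI there is no net growth.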

Holding throughout (assay): NCI anticancer screen, dose series, 48 h
For assay [1], the system named is UACC-62 melanoma.
Assay [2] deals with HCT-15 colon.
Assay [3] deals with ACHN renal.
The subject of assay [4] is NCI-H226 lung.
The subject of assay [5] is MDA-N.
Assay [6] relates to HT29 colon.
The subject of assay [7] is SF-539 CNS.
Assay [8] relates to IGROV1 ovarian.
For assay [9], the system named is HCC-2998 colon.
The subject of assay [10] is M19-MEL melanoma.
The test system of assay [11] is DMS 114 small cell lung.
Assay [12] concerns DLD-1 colon.
For assay [13], the system named is LXFL 529 NSCLC.
Assay [14] relates to SNB-78 CNS.
Assay [15] relates to KM20L2 colon.
In assay [16] the test system is DMS 273 small cell lung.

On to `O=c1[nH]ncc2[nH]c3c(c12)CCCc1ccccc1-3`, for which the TGI in assay [1] was over 100 µM; in assay [2] it was over 100 µM; in [3], over 100 µM; in [4], over 100 µM; in [5], 98.8 µM; in [6], over 100 µM. Moreover, the TGI in assay [7] was over 100 µM; in assay [8] it was over 100 µM; in assay [9], 61.4 µM.
As for `CCN(CC)CC1CCCCN1CC(=O)N1c2ccc(Br)cc2C(=O)Nc2cccnc21` (stereo unspecified), the TGI in assay [1], in assay [2], in assay [3], in assay [4], in assay [5] and in assay [6] was over 100 µM each time. For the same compound, the TGI in [7], in [8] and in assay [9] was over 100 µM throughout.
With `C/C(=N/NC(=S)Nc1cccc(Cl)c1)c1cccc(/C(C)=N\NC(=S)Nc2cccc(Cl)c2)n1`, the TGI in assay [1] was 16.4 µM; in [2] it was over 100 µM; in [3], 6.73 µM; in assay [4] it was 5.44 µM; in assay [5], over 65.7 µM; in [6], over 42.4 µM. The TGI in assay [7] was 3.72 µM; in [8], over 75.2 µM; in [9], over 100 µM.
Turning to `Cc1ccc(-c2n[nH]c(=O)n2N)cc1`, the TGI in assay [1], in assay [2], in assay [3], in assay [4], in assay [5] and in assay [6] was over 100 µM each time. The TGI in assay [7], in assay [8] and in assay [9] was over 100 µM in each case.
Consider `O=C(CCNC(=O)OCc1ccccc1)OCCCNC(=O)OCc1ccccc1`, for which the TGI in assay [1], in [2], in assay [3], in [4], in assay [5] and in [6] was over 100 µM each time. The TGI in assay [7], in assay [8] and in assay [9] was over 100 µM each time.
Turning to `C/C(=N\O)C(CN(C)C)C(c1ccccc1)c1c(O)c2ccccc2oc1=O` (stereo unspecified), the TGI in assay [1], in assay [2], in assay [10], in [11], in assay [12] and in [4] was over 100 µM each time. Further, the TGI in [13], in assay [6], in assay [14], in assay [7], in [8] and in [15] was over 100 µM in each case. The TGI in [16] and in [9] was over 100 µM each time.
For the compound `C/C(CC(=O)Nc1ccc(C)cc1)=N\NC(N)=S`, the TGI in [1], in assay [10], in [11], in [12], in assay [3] and in assay [4] was over 100 µM in each case. The TGI in assay [13], in assay [6], in [14], in [7], in [8] and in [15] was over 100 µM each time. For the same compound, the TGI in assay [9] was over 100 µM.
With `C[C@H](C(=O)N1C(=O)O[C@@H](c2ccccc2)[C@H]1C)[C@H](c1ccccc1)N(Cc1ccccc1)OC(=O)c1ccccc1`, the TGI in assay [1], in assay [2], in assay [3], in assay [4], in assay [5] and in [6] was over 100 µM in each case. The TGI in [7] is over 100 µM; in [8], over 100 µM; in assay [9], 85.3 µM.
For `CCCCCCCCCCCCCC/C(=C/OCC[N+](C)(C)C)OC(C)=O` (tested in a mixture with another compound), the TGI in assay [1] was 5.25 µM; in [2], 19.5 µM; in assay [3] it was 14 µM; in assay [4], 14.7 µM; in assay [5], 10 µM; in [6], 1.82 µM. In addition, the TGI in assay [7] was 5.88 µM; in assay [8] it was 3.96 µM; in assay [9], 13.4 µM.
With `CCCCNC(=O)C1=C(C)NC(C)=C(C(=O)NCCCC)C1`, the TGI in assay [1], in assay [2], in [3], in assay [4], in assay [5] and in assay [6] was over 100 µM throughout. The TGI in assay [7], in [8] and in [9] was over 100 µM throughout.
Consider `COc1cc(C(CN)N(C)C)cc(OC)c1OC` (stereo unspecified), for which the TGI was over 100 µM in [1]; over 100 µM in [2]; over 100 µM in assay [3]; 71.6 µM in assay [4]; over 100 µM in assay [5]; over 100 µM in [6]. Moreover, the TGI in assay [7], in assay [8] and in assay [9] was over 100 µM each time.
As for `O=C1c2ccccc2C(=O)c2[nH]c(=O)c(/C=N/Nc3ccc([N+](=O)[O-])cc3)nc21`, the TGI is 4.16 µM in assay [1]; over 38.8 µM in assay [2]; 45.4 µM in assay [3]; 4.45 µM in assay [4]; 2.63 µM in assay [5]; over 21.5 µM in [6]. Also, the TGI in [7] is 19.2 µM; in assay [8] it was over 48.8 µM; in assay [9], 4.78 µM.
As to `COC(=O)c1c(C)cccc1C1CN=NC12Cc1c(C)cccc1C2=O` (stereo unspecified), the TGI in assay [1], in assay [2], in [3], in [4], in assay [5] and in assay [6] was over 100 µM each time. The TGI in assay [7], in assay [8] and in assay [9] was over 100 µM in each case.
